Where “and” joins values, the source holds several entries; their conditions need not be identical. Equal entries are not always repeated. HELM strings list units from the 5' end as sugar, base in round brackets, then linkage (d deoxyribose, r ribose, m 2'-O-methyl, p phosphodiester). Methylation of C is not given here. [moe] = 2'-O-(2-methoxyethyl) (MOE); [cEt] = constrained ethyl (cEt); [sp] = phosphorothioate linkage
Target: HBV
Settings: ASO

RNA1{[moe](G)[sp].[moe](C)[sp].[moe](A)[sp].[moe](G)[sp].[moe](A)[sp].[moe](G)[sp].d(G)[sp].d(T)[sp].d(G)[sp].d(A)[sp].d(A)[sp].d(G)[sp].d(C)[sp].d(G)[sp].d(A)[sp].[moe](A)[sp].[moe](G)}$$$$V2.0
target mRNA inhibition (HepG2, 0.07 µM): 65% and 68%

RNA1{[moe](G)[sp].[moe](C)[sp].[moe](A)[sp].d(G)[sp].d(T)[sp].d(A)[sp].d(T)[sp].d(G)[sp].d(G)[sp].d(A)[sp].d(T)[sp].d(C)[sp].[moe](G)[sp].[moe](G)[sp].[moe](C)[sp].[moe](A)}$$$$V2.0
target mRNA inhibition (HepG2, 0.07 µM): 81% and 72%

RNA1{[moe](G)[sp].[moe](G)[sp].[moe](A)[sp].[moe](G)[sp].[moe](T)[sp].[moe](T)[sp].d(C)[sp].d(C)[sp].d(G)[sp].d(C)[sp].d(A)[sp].d(G)[sp].d(T)[sp].d(A)[sp].d(T)[sp].[moe](G)[sp].[moe](G)}$$$$V2.0
target mRNA inhibition (HepG2, 0.0092593 µM): 2% | target mRNA inhibition (HepG2, 0.0277778 µM): 25% | target mRNA inhibition (HepG2, 0.0833333 µM): 55% | target mRNA inhibition (HepG2, 0.25 µM): 74%

RNA1{[moe](G)[sp].[moe](G)[sp].[moe](C)[sp].[cEt](A)[sp].[cEt](T)[sp].d(A)[sp].d(G)[sp].d(C)[sp].d(A)[sp].d(G)[sp].d(C)[sp].d(A)[sp].d(G)[sp].[moe](G)[sp].[moe](A)[sp].[moe](T)[sp].[moe](G)}$$$$V2.0
target mRNA inhibition (HepG2, 0.009375 µM): 17% | target mRNA inhibition (HepG2, 0.01875 µM): 32% | target mRNA inhibition (HepG2, 0.0375 µM): 52% | target mRNA inhibition (HepG2, 0.075 µM): 68% | target mRNA inhibition (HepG2, 0.15 µM): 77% | target mRNA inhibition (HepG2, 0.3 µM): 81%

RNA1{[moe](G)[sp].[moe](G)[sp].[moe](C)[sp].[moe](A)[sp].[moe](T)[sp].d(A)[sp].d(G)[sp].d(C)[sp].d(A)[sp].d(G)[sp].d(C)[sp].d(A)[sp].d(G)[sp].d(G)[sp].[moe](A)[sp].[moe](T)}$$$$V2.0
target mRNA inhibition (HepG2, 0.07 µM): 55% and 41%

RNA1{[moe](G)[sp].[moe](G)[sp].[moe](C)[sp].d(A)[sp].d(T)[sp].d(A)[sp].d(G)[sp].d(C)[sp].d(A)[sp].d(G)[sp].d(C)[sp].d(A)[sp].[moe](G)[sp].[moe](G)[sp].[moe](A)[sp].[moe](T)}$$$$V2.0
target mRNA inhibition (HepG2, 0.07 µM): 54% and 57%

RNA1{[moe](G)[sp].[moe](G)[sp].[moe](T)[sp].[moe](G)[sp].d(A)[sp].d(A)[sp].d(G)[sp].d(C)[sp].d(G)[sp].d(A)[sp].d(A)[sp].d(G)[sp].d(T)[sp].[moe](G)[sp].[moe](C)[sp].[moe](A)[sp].[moe](C)}$$$$V2.0
target mRNA inhibition (HepG2, 0.07 µM): 63% and 59%

RNA1{[moe](G)[sp].[moe](G)[sp].[moe](T)[sp].[moe](G)[sp].d(A)[sp].d(A)[sp].d(G)[sp].d(C)[sp].d(G)[sp].d(A)[sp].d(A)[sp].d(G)[sp].d(T)[sp].[moe](G)[sp].[moe](C)[sp].[moe](A)}$$$$V2.0
target mRNA inhibition (HepG2, 0.07 µM): 55% and 59%

RNA1{[moe](G)[sp].[moe](G)[sp].[moe](T)[sp].d(G)[sp].d(A)[sp].d(A)[sp].d(G)[sp].d(C)[sp].d(G)[sp].d(A)[sp].d(A)[sp].d(G)[sp].[moe](T)[sp].[moe](G)[sp].[moe](C)[sp].[moe](A)[sp].[moe](C)}$$$$V2.0
target mRNA inhibition (HepG2, 0.07 µM): 78% and 64%

RNA1{[moe](G)[sp].[moe](G)[sp].[moe](T)[sp].d(G)[sp].d(A)[sp].d(A)[sp].d(G)[sp].d(C)[sp].d(G)[sp].d(A)[sp].d(A)[sp].d(G)[sp].[moe](T)[sp].[moe](G)[sp].[moe](C)[sp].[moe](A)}$$$$V2.0
target mRNA inhibition (HepG2, 0.07 µM): 67% and 60%

RNA1{[moe](G)[sp].[moe](G)[sp].d(A)[sp].d(G)[sp].d(T)[sp].d(T)[sp].d(C)[sp].d(C)[sp].d(G)[sp].d(C)[sp].d(A)[sp].[moe](G)[sp].[moe](T)[sp].[moe](A)[sp].[moe](T)[sp].[moe](G)[sp].[moe](G)}$$$$V2.0
target mRNA inhibition (HepG2, 0.07 µM): 88% and 78%

RNA1{[moe](G)[sp].[moe](G)[sp].d(A)[sp].d(G)[sp].d(T)[sp].d(T)[sp].d(C)[sp].d(C)[sp].d(G)[sp].d(C)[sp].d(A)[sp].[moe](G)[sp].[moe](T)[sp].[moe](A)[sp].[moe](T)[sp].[moe](G)}$$$$V2.0
target mRNA inhibition (HepG2, 0.07 µM): 67% and 45%

RNA1{[moe](G)[sp].[moe](G)[sp].d(C)[sp].d(A)[sp].d(T)[sp].d(A)[sp].d(G)[sp].d(C)[sp].d(A)[sp].d(G)[sp].d(C)[sp].[moe](A)[sp].[moe](G)[sp].[moe](G)[sp].[moe](A)[sp].[moe](T)}$$$$V2.0
target mRNA inhibition (HepG2, 0.07 µM): 52% and 40%

RNA1{[moe](G)[sp].[moe](T)[sp].[moe](G)[sp].d(A)[sp].d(A)[sp].d(G)[sp].d(C)[sp].d(G)[sp].d(A)[sp].d(A)[sp].d(G)[sp].d(T)[sp].d(G)[sp].[cEt](C)[sp].[cEt](A)[sp].[cEt](C)}$$$$V2.0
target mRNA inhibition (HepG2, 0.0092593 µM): 0% | target mRNA inhibition (HepG2, 0.0277778 µM): 32% | target mRNA inhibition (HepG2, 0.07 µM): 74% and 84% | target mRNA inhibition (HepG2, 0.0833333 µM): 68% | target mRNA inhibition (HepG2, 0.25 µM): 86%

RNA1{[moe](G)[sp].[moe](T)[sp].d(T)[sp].d(C)[sp].d(C)[sp].d(G)[sp].d(C)[sp].d(A)[sp].d(G)[sp].d(T)[sp].d(A)[sp].[moe](T)[sp].[moe](G)[sp].[moe](G)[sp].[moe](A)[sp].[moe](T)[sp].[moe](C)}$$$$V2.0
target mRNA inhibition (HepG2, 0.07 µM): 45% and 58%

Reference: the OligoGym collection
